The text below walks through data of patent US20230012368A1 (Hoffmann-La Roche Inc., priority 2018, published 2023).

Broadly, the IC90 is the concentration needed for an effect of 90%.

Counter-ions that a name gives are not always drawn.

The subject of this assay is Acinetobacter baumannii ATCC 17978. Put plainly: Antimicrobial susceptibility testing: 90% growth inhibitory concentration (IC90) determination. It counts as cell-based. The following applies: Acinetobacter baumannii, ATCC17978, 16 h, 90% growth inhibitory concentration; Acinetobacter baumannii ATCC17978; Iso-Sensitest broth, OD 600 nm over 16h; read-out: ATCC17978 IC90. The gist of the method: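 Compounds serially twofold diluted (e.g. 50 to 0.097 μM final) in Iso-Sensitest broth, inoculated at ~5×10^(5) CFU/ml, incubated at 35±2° C. OD600 read every 20 minutes over 16h. IC90 taken as concentration inhibiting 90% of growth during logarithmic phase.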
On to `COc1ccc(-c2cnc3c(Nc4ccc(C(=O)NCCN5CCNCC5=O)c(C)c4)nccn23)cc1F` [Example 248, 4-[[3-(3-fluoro-4-methoxyphenyl)imidazo[1,2-a]pyrazin-8-yl]amino]-2-methyl-N-[2-(2-oxopiperazin-1-yl)ethyl]benzamide;hydrochlo-ride], for which the IC90 was found to be 2.4 µM.

`Cc1cc(Nc2nccn3c(-c4ccc(Cl)c(F)c4F)cnc23)ccc1C(=O)NCCN` [Example 249, N-(2-aminoethyl)-4-[[3-(4-chloro-2,3-difluorophenyl)imidazo[1,2-a]pyrazin-8-yl]amino]-2-methylbenzamide;hydrochlo-ride]: the IC90 is 2.5 µM.

On to `Cc1cc(Nc2nccn3c(-c4ccc(OC(F)F)cc4)cnc23)ccc1C(=O)N(C)CCN1CCOCC1` [Example 250, 4-[[3-[4-(difluoromethoxy)phenyl]im-idazo[1,2-a]pyrazin-8-yl]amino]-N,2-dimethyl-N-(2-morpholin-4-ylethyl)benzamide], for which the IC90 amounted to 1.2 µM.

For `Cc1cc(Nc2nccn3c(-c4ccc(OC(F)F)cc4)cnc23)ccc1C(=O)NC(CO)CN1CCOCC1` (centres unmarked) [Example 251, 4-[[3-[4-(difluoromethoxy)phenyl]im-idazo[1,2-a]pyrazin-8-yl]amino]-N-(1-hydroxy-3-morpholin-4-ylpropan-2-yl)-2-methylbenzamide], the IC90 came to 2.7 µM.

For the compound `Cc1cc(Nc2nccn3c(-c4ccc(OC(F)F)cc4)cnc23)ccc1C(=O)NCC(=O)N1CCOCC1` [Example 252, 4-[[3-[4-(difluoromethoxy)phenyl]im-idazo[1,2-a]pyrazin-8-yl]amino]-2-methyl-N-(2-morpholin-4-yl-2-oxoethyl)benzamide], the IC90 turned out to be 2.8 µM.

As to `Cc1cc(Nc2nccn3c(-c4ccc(Cl)c(F)c4F)cnc23)ccc1C(=O)NCC1CCNCC1` [Example 253, 4-[[3-(4-chloro-2,3-difluorophenyl)imidazo[1,2-a]pyrazin-8-yl]amino]-2-methyl-N-(piperidin-4-ylmethyl)benzamide; hydrochlo-ride], the IC90 is 2.9 µM.

`Cc1cc(Nc2nccn3c(-c4ccc(OC(F)F)cc4)cnc23)ccc1C(=O)NC[C@H](C)N` [Example 254, N-[(2S)-2-aminopropyl]-4-[[3-[4-(difluoromethoxy)phenyl]im-dazo[1,2-a]pyrazin-8-yl]amino]-2-methylbenzamide; hydrochlo-ride]: the IC90 was 3.3 µM.

`Cc1cc(Nc2nccn3c(-c4ccc(OC(F)F)cc4)cnc23)ccc1C(=O)N(C)CCN1CCOC(C)(C)C1` [Example 255, 4-[[3-[4-(difluoromethoxy)phenyl]im-idazo[1,2-a]pyrazin-8-yl]amino]-N-[2-(2,2-dimethylmorpholin-4-yl)ethyl]-N,2-dimethylbenzamide]: the concentration for an effect of 90% (IC90) was 2.2 µM.

`Cc1cc(Nc2nccn3c(-c4ccc(OC(F)F)cc4)cnc23)ccc1C(=O)N(C)CCN1C[C@@H](C)O[C@@H](C)C1` [Example 256, 4-[[3-[4-(difluoromethoxy)phenyl]im-idazo[1,2-a]pyrazin-8-yl]amino]-N,2-dimethyl-N-[2-[rac-(2R,6S)-2,6-dimethylmorpholin-4-yl]ethyl]benzamide]: the IC90 came to 1.9 µM.

For the compound `Cc1cc(Nc2nccn3c(-c4ccc(OC(F)F)cc4)cnc23)ccc1C(=O)N(C)CCCN1CCCCC1` [Example 257, 4-[[3-[4-(difluoromethoxy)phenyl]im-idazo[1,2-a]pyrazin-8-yl]amino]-N,2-dimethyl-N-(3-piperidin-1-ylpropyl)benzamide], the IC90 amounted to 3.6 µM.

As for `Cc1cc(Nc2nccn3c(-c4ccc(Cl)c(F)c4F)cnc23)ccc1C(=O)N[C@@H](C)CN` [Example 258, N-[(2S)-1-aminopropan-2-yl]-4-[[3-(4-chloro-2,3-difluorophenyl)imidazo[1,2-a]pyrazin-8-yl]amino]-2-methylbenzamide;hydrochlo-ride], the IC90 was 3.6 µM.

With `CN(C)C(=O)c1ccc(Nc2nccn3c(-c4ccc(OC(F)F)cc4)cnc23)cc1CO` [Example 259, 4-[[3-[4-(difluoromethoxy)phenyl]im-idazo[1,2-a]pyrazin-8-yl]amino]-2-(hydroxymethyl)-N,N-dimethylbenzamide], the IC90 turned out to be 4.1 µM.

Take `Cc1cc(Nc2nccn3c(-c4ccc(OC(F)F)cc4)cnc23)ccc1C(=O)N(C)CC1(O)CCNCC1` [Example 260, 4-[[3-[4-(difluoromethoxy)phenyl]im-idazo[1,2-a]pyrazin-8-yl]amino]-N-[(4-hydroxypiperidin-4-yl)methyl]-N,2-dimethylbenzamide;hydrochlo-ride]: the IC90 was 4.3 µM.

On to `Cc1cc(Nc2nccn3c(-c4ccc(OC(F)F)cc4)cnc23)ccc1C(=O)NCC1(O)CCNCC1` [Example 261, 4-[[3-[4-(difluoromethoxy)phenyl]im-idazo[1,2-a]pyrazin-8-yl]amino]-N-[(4-hydroxypiperidin-4-yl)methyl]-2-methylbenzamide; hydrochlo-ride], for which the IC90 came out at 4.9 µM.

As to `Cc1cc(Nc2nccn3c(-c4ccc(OC(F)F)cc4)cnc23)ccc1C(=O)N(CCO)CCO` [Example 262, 4-[[3-[4-(difluoromethoxy)phenyl]im-idazo[1,2-a]pyrazin-8-yl]amino]-N,N-bis(2-hydroxyethyl)-2-methylbenzamide], the IC90 is 5 µM.

Turning to `COc1ccc(-c2cnc3c(Nc4ccc(C(=O)NCCCN(C)C)cc4)nccn23)cc1Cl` [Example 263, 4-[[3-(3-chloro-4-methoxyphenyl)imidazo[1,2-a]pyrazin-8-yl]amino]-N-[3-(dimethylamino)propyl]benz-amide], the IC90 is 5 µM.

As for `COc1ccc(-c2cnc3c(Nc4ccc(C(=O)N(C)CCN)cc4)nccn23)cc1` [Example 264, N-(2-aminoethyl)-4-[[3-(4-methoxyphenyl)imidazo[1,2-a]pyrazin-8-yl]amino]-N-methylbenzamide; hydrochlo-ride], the IC90 was 5.1 µM.

Regarding `Cc1cc(Nc2nccn3c(-c4ccc(OC(F)F)cc4)cnc23)ccc1C(=O)N(C)CCN1CCCCC1` [Example 265, 4-[[3-[4-(difluoromethoxy)phenyl]im-idazo[1,2-a]pyrazin-8-yl]amino]-N,2-dimethyl-N-(2-piperidin-1-ylethyl)benzamide], the IC90 was 5.1 µM.

With `Cc1cc(Nc2nccn3c(-c4ccc(OC(F)F)cc4)cnc23)ccc1C(=O)NCCN` [Example 266, N-(2-aminoethyl)-4-[[3-[4-(difluoromethoxy)phenyl]im-idazo[1,2-a]pyrazin-8-yl]amino]-2-methylbenzamide;hydrochlo-ride], the IC90 was 5.1 µM.

Consider `COc1ccc(-c2cnc3c(Nc4ccc(C(=O)N(C)CCN5CCCCC5)c(C)c4)nccn23)cc1F` [Example 267, 4-[[3-(3-fluoro-4-methoxyphenyl)imidazo[1,2-a]pyrazin-8-yl]amino]-N,2-dimethyl-N-(2-piperidin-1-ylethyl)benzamide], for which the IC90 was found to be 5.4 µM.

With `Cc1cc(Nc2nccn3c(-c4ccc(OC(F)F)cc4)cnc23)ccc1C(=O)NC[C@@H](C)N` [Example 268, N-[(2R)-2-aminopropyl]-4-[[3-[4-(difluoromethoxy)phenyl]im-idazo[1,2-a]pyrazin-8-yl]amino]-2-methylbenzamide;hydrochlo-ride], the IC90 amounted to 5.6 µM.

In the case of `Cc1cc(Nc2nccn3c(-c4ccc(OC(F)F)cc4)cnc23)ccc1C(=O)N[C@@H](C)CN` [Example 269, N-[(2S)-1-aminopropan-2-yl]-4-[[3-[4-(difluoromethoxy)phenyl]im-idazo[1,2-a]pyrazin-8-yl]amino]-2-methylbenzamide;hydrochlo-ride], the IC90 was determined as 7.1 µM.

As for `Cc1cc(Nc2nccn3c(-c4ccc(OC(F)F)cc4)cnc23)ccc1C(=O)N[C@H](C)CN` [Example 270, N-[(2R)-1-aminopropan-2-yl]-4-[[3-[4-(difluoromethoxy)phenyl]im-idazo[1,2-a]pyrazin-8-yl]amino]-2-methylbenzamide;hydrochlo-ride], the IC90 came out at 7.7 µM.

`Cc1cc(Nc2nccn3c(-c4ccc(OC(F)F)cc4)cnc23)ccc1C(=O)NCCCC[C@H](N)C(=O)O` [Example 271, (2S)-2-amino-6-[[4-[[3-[4-(difluoromethoxy)phenyl]im-idazo[1,2-a]pyrazin-8-yl]amino]-2-methylbenzoyl]amino]hexa-noic acid]: the concentration for an effect of 90% (IC90) was 9.3 µM.

Regarding `COc1ccc(-c2cnc3c(Nc4ccc(C(=O)NCCCCCN5CCNCC5)c(C)c4)nccn23)cc1F` [Example 272, 4-[[3-(3-fluoro-4-methoxyphenyl)imidazo[1,2-a]pyrazin-8-yl]amino]-2-methyl-N-(5-piperazin-1-ylpentyl)benzamide;hydrochlo-ride], the IC90 was 0.12 µM.

On to `COc1ccc(-c2cnc3c(Nc4ccc(C(=O)N(C)CCCCC(=O)N5CCNCC5)c(C)c4)nccn23)cc1F` [Example 273, 4-[[3-(3-fluoro-4-methoxyphenyl)imidazo[1,2-a]pyrazin-8-yl]amino]-N,2-dimethyl-N-(5-oxo-5-piperazin-1-ylpentyl)benzamide], for which the IC90 was 0.18 µM.

Turning to `COc1ccc(-c2cnc3c(Nc4ccc5c(c4)CCN(C)C5=O)nccn23)cc1F` [Example 274, 6-[[3-(3-fluoro-4-methoxyphenyl)imidazo[1,2-a]pyrazin-8-yl]amino]-2-methyl-3,4-dihydroisoquinolin-1-one], the IC90 was determined as 0.24 µM.

With `COc1ccc(-c2cnc3c(Nc4ccc(C(=O)N(C)CCCN5CCNCC5)c(C)c4)nccn23)cc1F` [Example 275, 4-[[3-(3-fluoro-4-methoxyphenyl)imidazo[1,2-a]pyrazin-8-yl]amino]-N,2-dimethyl-N-(3-piperazin-1-ylpropyl)benzamide], the IC90 worked out at 0.35 µM.

As for `CCc1cc(Nc2nccn3c(-c4ccc(OC(F)F)c(F)c4F)cnc23)ccc1C(=O)NCCCN` [Example 276, N-(3-aminopropyl)-4-[[3-[4-(difluoromethoxy)-2,3-difluorophenyl]imidazo[1,2-a]pyrazin-8-yl]amino]-2-ethylbenzamide;hydrochloride], the IC90 was 0.48 µM.
